Where a name gives a salt, the structure may show the parent alone.
Each molecule was assayed against T1, human GPR40 (Homo sapiens, UniProt O14842) (assay: Ca2+ mobilization (FLIPR) in a stable GPR40-expressing cell; GPR40 agonist activity). Details: compound concentration corresponding to 50% PosiC, 100% = intracellular calcium level induced by 80 μM palmitic acid.
T1 construct: expressed in transfected cells
Assay type: cell-based
Description: Evaluation of effect of test compounds on Ca^2+ mobilization by using a stable GPR40-expressing cell A stable human GPR40-expressing HEK293 cell was used. A cell suspension was prepared such that the above-mentioned cells were present at 6×10^5 cells/mL in a cell culture medium (D-MEM (Nikken Bio Medical Laboratory) supplemented with 10% (v/v) fetal bovine serum (Biowest) and 1% (v/v) penicillin-streptomycin solution (Invitrogen)). The cell suspension was plated in a 384-well plate (poly-D-lysine coated plate; Falcon) in a volume of 25 μl/well, and the plate was incubated at 37° C. in an atmosphere of 5% CO2 overnight. Each test compound was added to the cell at each concentration as below, and then the change in intracellular calcium level was measured by FLIPR^TETRA (Molecular Devices). Before the FLIPR assay, the following preparative solutions were prepared. First, an assay buffer was prepared for use in the preparation of a fluorescent dye solution and a diluent buffer solution. The assay buffer was prepared by adding 1M HEPES solution (Invitrogen) to Hanks' Balanced Salt Solution (Invitrogen), followed by adjusting the pH to 7.4 with 1M NaOH (Nacalai Tesque). Next, the fluorescent dye solution and the diluent buffer solution were prepared. The fluorescent dye solution was prepared in accordance with the instruction manual attached to Fluo-4NW calcium assay kit (Invitrogen), followed by addition of bovine serum albumin (Sigma) to a final concentration of 0.1% (w/v). The diluent buffer solution was prepared by adding bovine serum albumin (Sigma) to the assay buffer to give a final concentration of 0.1% (w/v). After removing a medium supernatant from the cell culture plate incubated overnight, the fluorescent dye solution was added to the plate in a volume of 25 μl/well. The plate was incubated at 37° C. in an atmosphere of 5% CO2 for 90 minutes to promote the fluorescent dye uptake in the cell. Meanwhile, the test compounds (i.e., the compounds prepared in Examples) dissolved in dimethyl sulfoxide (DMSO; Nacalai Tesque) were diluted with the diluent buffer solution, to prepare each compound solution at each concentration. In addition, a palmitic acid solution was prepared as a positive control solution (hereinafter abbreviated as PosiC). A 40 μl aliquot of each sample solution prepared as above was added to each well of a 384-well polypropylene plate to prepare a compound plate. Finally, after the sufficient uptake of the fluorescent dye in the cell, the cell plate and the compound plate were set to FLIPR^TETRA. After the above pretreatment, the change in intracellular calcium level was measured by FLIPR^TETRA upon addition of 25 μl of each test compound solution at each concentration. The GPR40 agonist activity of each test compound at each concentration was determined as a relative activity level (% PosiC) with the intracellular calcium level induced by 80 μM palmitic acid (a GPR40 agonist) set to 100%. Next, each compound concentration corresponding to 50% PosiC was calculated based on the % PosiC value, to compare between agonist activities of the test compounds. In the tables, “++++” indicates 0.01 μM or more but less than 0.1 μM, “+++” indicates 0.1 μM or more but less than 1 μM, “++” indicates 1 μM or more but less than 10 μM, and “+” indicates 10 μM or more for 50% posiC value. In the tables, “N.T.” indicates “not tested”.

T1 sequence (O14842 whole entry): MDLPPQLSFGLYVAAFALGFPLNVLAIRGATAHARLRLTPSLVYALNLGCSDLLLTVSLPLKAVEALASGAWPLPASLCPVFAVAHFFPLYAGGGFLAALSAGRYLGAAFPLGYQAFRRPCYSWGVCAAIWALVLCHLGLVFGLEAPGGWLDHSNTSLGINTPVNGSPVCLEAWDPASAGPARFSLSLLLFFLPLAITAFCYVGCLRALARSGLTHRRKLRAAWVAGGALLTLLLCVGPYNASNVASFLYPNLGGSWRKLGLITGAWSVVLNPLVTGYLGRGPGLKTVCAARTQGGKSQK

| Compound | EC50 [µM] |
| --- | --- |
| O=C(O)CCc1ccc(OCC2CCC3(CCCCC3)CC2)cc1 [Example 57, 3-[4-(spiro[5.5]undec-3-ylmethoxy)-phenyl]-propionic acid] | 1 to 10 |
| CC#C[C@@H](CC(=O)O)c1ccc(OCC2=CCC3(CCCCC3)CC2)cc1 [Example 73, (3S)-3-[4-(spiro[5.5]undec-2-en-3-ylmethoxy)-phenyl]-hex-4-ynoic acid] | 0.1 to 1 |
| CC#C[C@@H](CC(=O)O)c1ccc(OCC2=C[C@@]3(CCC2)CCC(=O)C3)cc1 [Example 97, (3S)-3-[4-((5S)-2-oxo-spiro[4.5]dec-6-en-7-ylmethoxy)-phenyl]-hex-4-ynoic acid sodium salt] | 0.1 to 1 |
| CC#C[C@@H](CC(=O)O)c1ccc(OCC2=C[C@@]3(CCC2)CC[C@H](O)C3)cc1 [Example 99, (3S)-3-[4-((2S,5S)-2-hydroxy-spiro[4.5]dec-6-en-7-ylmethoxy)-phenyl]-hex-4-ynoic acid sodium salt] | 1 to 10 |
| CC#C[C@@H](CC(=O)O)c1ccc(OCC2=C[C@]3(CCC2)CCC(=O)C3)cc1 [Example 103, (3S)-3-[4-((5R)-2-oxo-spiro[4.5]dec-6-en-7-ylmethoxy)-phenyl]-hex-4-ynoic acid sodium salt] | 0.1 to 1 |
| CC#C[C@@H](CC(=O)O)c1ccc(OCC2=C[C@]3(CCC2)CC[C@H](O)C3)cc1 [Example 107, (3S)-3-[4-((2S,5R)-2-hydroxy-spiro[4.5]dec-6-en-7-ylmethoxy)-phenyl]-hex-4-ynoic acid sodium salt] | 0.1 to 1 |
| O=C(O)CCc1ccc(OCC2=CC3(CCCC3)CCC2)cc1Cl [Example 108, 3-[2-chloro-4-(spiro[4.5]dec-6-en-7-ylmethoxy)-phenyl]-propionic acid] | 1 to 10 |
| Cc1cc(OCC2=CC3(CCCC3)CCC2)ccc1CCC(=O)O [Example 109, 3-[2-methyl-4-(spiro[4.5]dec-6-en-7-ylmethoxy)-phenyl]-propionic acid] | 1 to 10 |
| O=C(O)CCc1ccc(OCC2=CC3(CCCC3)CCC2)c(O)c1 [Example 110, 3-[3-hydroxy-4-(spiro[4.5]dec-6-en-7-ylmethoxy)-phenyl]-propionic acid] | 0.1 to 1 |
| CC#C[C@@H](CC(=O)O)c1ccc(OCC2=CCCC3(CCCCC3)C2)cc1 [Example 119, (S)-3-[4-(spiro[5.5]undec-2-en-2-ylmethoxy)-phenyl]-hex-4-ynoic acid L-lysine salt] | 0.1 to 1 |

Next, values leading:

| EC50 [µM] | Compound |
| --- | --- |
| 0.1 to 1 | CC#C[C@@H](CC(=O)O)c1ccc(OC2CCC3(CCCCC3)CC2)cc1 [Example 63, (3S)-3-[4-(spiro[5.5]undec-3-yloxy)-phenyl]-hex-4-ynoic acid] |
| 1 to 10 | CC#C[C@H](CC(=O)O)c1ccc(OCC2=CC3(CCCC3)CCC2)cc1 [Example 94, (R)-3-[4-(spiro[4.5]dec-6-en-7-ylmethoxy)-phenyl]-hex-4-ynoic acid L-lysine salt] |
| 0.1 to 1 | CC#C[C@@H](CC(=O)O)c1ccc(OCC2=C[C@@]3(CCC2)CC[C@@H](O)C3)cc1 [Example 101, (3S)-3-[4-((2R,5S)-2-hydroxy-spiro[4.5]dec-6-en-7-ylmethoxy)-phenyl]-hex-4-ynoic acid sodium salt] |
| 1 to 10 | CC#C[C@@H](CC(=O)O)c1ccc(OCC2=C[C@]3(CCC2)CC[C@@H](O)C3)cc1 [Example 105, (3S)-3-[4-((2R,5R)-2-hydroxy-spiro[4.5]dec-6-en-7-ylmethoxy)-phenyl]-hex-4-ynoic acid sodium salt] |
| ≥ 10 | COc1cc(CCC(=O)O)ccc1OCC1=CC2(CCCC2)CCC1 [Example 111, 3-[3-methoxy-4-(spiro[4.5]dec-6-en-7-ylmethoxy)-phenyl]-propionic acid] |
| ≥ 10 | O=C(O)CCc1ccc(OCC2=CC3(CCCC3)CCC2)c(F)c1 [Example 112, 3-[3-fluoro-4-(spiro[4.5]dec-6-en-7-ylmethoxy)-phenyl]-propionic acid] |
| 1 to 10 | O=C(O)CCc1ccc(OCC2=CC3(CCC3)CC2)cc1 [Example 117, 3-[4-(spiro[3.4]oct-5-en-6-ylmethoxy)-phenyl]-propionic acid] |
